Results from publication PMC12529750 (Emerging Microbes & Infections, 2025).

Experiments:
[1] = system: SARS-CoV-2 original virus (SARS-CoV-2/human/Denmark/DK-AHH1/2020); experiment: microbe, parasite or virus in culture; type: cell-based
[2] = system: VeroE6 and A549-hACE2 cells
[3] = human, in vivo; cited from earlier work
[4] = Severe acute respiratory syndrome coronavirus 2
[5] = Severe acute respiratory syndrome coronavirus 2, Vero C1008

Structure (SMILES)	EC50 [1, 4] [nM]	EC50 [1, 5] [nM]	Cytotoxicity (cell viability, CC50) [2]	Cmax [3] [µM]
Cn1cnc(Cn2c(=O)[nH]/c(=N\c3cc4cn(C)nc4cc3Cl)n(Cc3cc(F)c(F)cc3F)c2=O)n1 [ENS, Ensitrelvir]	100	420	low	57
CC(C)(C)[C@H](NC(=O)C(F)(F)F)C(=O)N1C[C@H]2[C@@H]([C@H]1C(=O)N[C@H](C#N)C[C@@H]1CCNC1=O)C2(C)C [NIR, Nirmatrelvir]	40	2900	–	–
